# Assay results published in patent US10065990B2, “Cyclic peptide compound, and preparation method, pharmaceutical composition and use thereof” (HANGZHOU GUANYU BIO-MEDICAL CO., LTD, priority 2013, dated 2018).
# Where two headings read alike, the source gives them in different places.
# How the values were obtained:
# HDAC7 = target: T1, HDAC7 (Homo sapiens, UniProt Q8WUI4); experiment: HDAC biochemical activity measurement (fluorescent substrate deacetylation);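 note: fluorogenic deacetylation assay using acetyl-lysine substrate at 20 µM, enzyme and compound incubated 30 min at 37 °C, then developer added, fluorescence read at 360/460 nm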; conditions: HDAC7; 37° C. 30 minutes
# T1 sequence (Q8WUI4 1-952): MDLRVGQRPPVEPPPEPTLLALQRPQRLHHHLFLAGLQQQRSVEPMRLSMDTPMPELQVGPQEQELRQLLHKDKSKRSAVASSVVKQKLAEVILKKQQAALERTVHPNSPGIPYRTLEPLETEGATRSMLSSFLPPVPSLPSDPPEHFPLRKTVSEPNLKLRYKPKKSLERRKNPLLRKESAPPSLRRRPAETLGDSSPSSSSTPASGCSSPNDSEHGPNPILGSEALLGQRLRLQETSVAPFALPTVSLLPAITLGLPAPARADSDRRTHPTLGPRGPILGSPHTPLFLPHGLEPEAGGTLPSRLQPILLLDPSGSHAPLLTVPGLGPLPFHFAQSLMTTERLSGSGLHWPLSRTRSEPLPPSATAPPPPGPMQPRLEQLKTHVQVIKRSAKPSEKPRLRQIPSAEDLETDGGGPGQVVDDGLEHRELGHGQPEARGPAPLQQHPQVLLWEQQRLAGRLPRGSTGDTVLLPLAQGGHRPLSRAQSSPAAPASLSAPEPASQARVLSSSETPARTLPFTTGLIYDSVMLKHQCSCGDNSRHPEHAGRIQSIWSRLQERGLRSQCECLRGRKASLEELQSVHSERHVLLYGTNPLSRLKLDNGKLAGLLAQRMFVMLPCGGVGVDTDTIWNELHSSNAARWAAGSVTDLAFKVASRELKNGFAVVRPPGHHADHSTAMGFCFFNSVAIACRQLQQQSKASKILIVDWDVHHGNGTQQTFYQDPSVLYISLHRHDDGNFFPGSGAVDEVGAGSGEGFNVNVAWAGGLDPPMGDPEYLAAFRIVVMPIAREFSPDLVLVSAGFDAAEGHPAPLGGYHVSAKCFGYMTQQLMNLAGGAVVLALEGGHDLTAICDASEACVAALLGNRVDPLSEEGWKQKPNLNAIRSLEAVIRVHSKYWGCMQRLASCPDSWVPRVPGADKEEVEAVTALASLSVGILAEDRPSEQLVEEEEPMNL
# [1] = test system: A549 (human lung cancer cells); experiment: MTT cancer cell growth inhibition; type: cell-based; conditions: Homo sapiens, A549, 72 h, MTT, 72 hours incubation, read-out: GI50 A54
# From the text: (§1) MTT assay principle is yellow MTT can penetrate membrane into the cell, succinic dehydrogenase of the mitochondria in living cells can make exogenous MTT reduction of insoluble in water of blue-violet acicular formazan for crystallization and deposition in the cell, crystallization can be dissolved dimethyl sulfoxide (DMSO) solution, detected its absorbance at 490 nm/570 nm wavelength by enzyme-linked immunosorbent assay, which can reflect the number of cells.
# (§2) Using DMEM+10% FBS culture medium or using 1640+10% FBS culture, respectively.
# (§3) a) Cells were seeded in 96-well plates with the inoculation of 1500/well, 190 μl/hole, 37° C., 5% of CO2 incubator overnight;
# (§4) b) The next day each well was added 10 μl of different drugs. The final concentration of drug was 10^−5˜10^−10M, three parallel holes; 37° C., 5% CO2 culture incubator for 72 hours incubation;
# (§5) c) Per well was added 20 μl 5 mg/ml of MTT, 37° C., 5% CO2 culture incubator for 4 hours incubation;
# (§6) d) The supernatant was discarded. Each well was added 100 μl of DMSO and oscillation;
# (§7) e) 570 nm readings. Calculate cell viability. GI50 calculation based on the results.
# [2] = test system: Huh-7 (human hepatoma cells); experiment: MTT cancer cell growth inhibition; type: cell-based; conditions: Homo sapiens, Huh-7, 72 h, MTT, 72 hours incubation, Huh-7 cells; read-out: GI50 Huh-7
# From the text: as §1, §2, §3, §4, §5, §6, §7
# [3] = test system: MDA-MB-231 (breast cancer cells); experiment: MTT cancer cell growth inhibition; type: cell-based; conditions: Homo sapiens, MDA-MB-231, 72 h, read-out: GI50 MDA-MB-231, MTT, 72 hours incubation, MDA-MB-231 cells
# From the text: as §1, §2, §3, §4, §5, §6, §7
# [4] = test system: MCF-7 (human breast cancer cells); experiment: MTT cancer cell growth inhibition; type: cell-based; conditions: Homo sapiens, MCF7, 72 h, 72 hours incubation, read-out: GI50 MCF
# From the text: as §1, §2, §3, §4, §5, §6, §7
# [5] = test system: KBM5-T315I (human chronic myelogenous leukemia); experiment: MTT cancer cell growth inhibition; type: cell-based; conditions: Homo sapiens, 72 h, MTT, 72 hours incubation, KBM5-T315I cells; read-out: GI50 KBM5-T315I
# From the text: as §1, §2, §3, §4, §5, §6, §7
# [6] = test system: HCC827 (human non-small cell lung cancer cells); experiment: MTT cancer cell growth inhibition; type: cell-based; conditions: Homo sapiens, HCC827, 72 h, MTT, 72 hours incubation, HCC827 cells; read-out: GI50 HCC827
# From the text: as §1, §2, §3, §4, §5, §6, §7
# [7] = test system: HT1080 (human fibrosarcoma cells); experiment: MTT cancer cell growth inhibition; type: cell-based; conditions: Homo sapiens, HT-1080, 72 h, MTT, 72 hours incubation, read-out: GI50 HT1
# From the text: as §1, §2, §3, §4, §5, §6, §7
# [8] = test system: lncap (prostate cancer cells); experiment: MTT cancer cell growth inhibition; type: cell-based; conditions: Homo sapiens, LNCaP, 72 h, MTT, 72 hours incubation, read-out: GI50 lnca
# From the text: as §1, §2, §3, §4, §5, §6, §7
# [9] = test system: U937 (human leukemia cells); experiment: MTT cancer cell growth inhibition; type: cell-based; conditions: Homo sapiens, U-937, 72 h, MTT, 72 hours incubation, read-out: GI50 U93
# From the text: as §1, §2, §3, §4, §5, §6, §7
# [10] = test system: KBM-5 (human chronic myelogenous leukemia); experiment: MTT cancer cell growth inhibition; type: cell-based; conditions: Homo sapiens, KBM5, 72 h, MTT, 72 hours incubation, KBM-5 cells; read-out: GI50 KBM-5
# From the text: as §1, §2, §3, §4, §5, §6, §7
# [11] = test system: BGC-823 (human gastric cancer cells); experiment: MTT cancer cell growth inhibition; type: cell-based; conditions: Homo sapiens, BGC-823, 72 h, MTT, 72 hours incubation, read-out: GI50 BG
# From the text: as §1, §2, §3, §4, §5, §6, §7
# [12] = test system: DU145 (human prostate cancer cells); experiment: MTT cancer cell growth inhibition; type: cell-based; conditions: Homo sapiens, DU-145, 72 h, MTT, 72 hours incubation, read-out: GI50 Du1
# From the text: as §1, §2, §3, §4, §5, §6, §7
# [13] = test system: SGC-7901 (human gastric cancer cells); experiment: MTT cancer cell growth inhibition; type: cell-based; conditions: Homo sapiens, SGC-7901, 72 h, MTT, 72 hours incubation, SGC-7901 cells; read-out: GI50 SGC-7901
# From the text: as §1, §2, §3, §4, §5, §6, §7
# [14] = test system: N-87 (human gastric cancer cells); experiment: MTT cancer cell growth inhibition; type: cell-based; conditions: Homo sapiens, 72 h, MTT, 72 hours incubation, N-87 cells; read-out: GI50 N-87
# From the text: as §1, §2, §3, §4, §5, §6, §7
# [15] = test system: H1975 (non-small cell lung adenocarcinoma); experiment: MTT cancer cell growth inhibition; type: cell-based; conditions: Homo sapiens, NCI-H1975, 72 h, MTT, 72 hours incubation, H1975 cells; read-out: GI50 H1975
# From the text: as §1, §2, §3, §4, §5, §6, §7
# [16] = test system: K562 (human leukemia cells); experiment: MTT cancer cell growth inhibition; type: cell-based; conditions: Homo sapiens, K562, 72 h, MTT, 72 hours incubation, K562 cells; read-out: GI50 K562
# From the text: as §1, §2, §3, §4, §5, §6, §7
# [17] = test system: MOLT-4 (human acute lymphoblastic leukemia cells); experiment: MTT cancer cell growth inhibition; type: cell-based; conditions: Homo sapiens, MOLT-4, 72 h, MTT, 72 hours incubation, read-out: GI50 Mol
# From the text: as §1, §2, §3, §4, §5, §6, §7
# [18] = test system: Bel-7402 (human hepatoma cells); experiment: MTT cancer cell growth inhibition; type: cell-based; conditions: Homo sapiens, Bel-7402, 72 h, MTT, 72 hours incubation, Bel-7402 cells; read-out: GI50 Bel-7402
# From the text: as §1, §2, §3, §4, §5, §6, §7
# [19] = test system: Hela (human cervical cancer cells); experiment: MTT cancer cell growth inhibition; type: cell-based; conditions: Homo sapiens, HeLa, 72 h, MTT, 72 hours incubation, read-out: GI50 Hela
# From the text: as §1, §2, §3, §4, §5, §6, §7
# [20] = test system: PANC-1 (Pac-1, human pancreatic cancer cells); experiment: MTT cancer cell growth inhibition; type: cell-based; conditions: Homo sapiens, PANC-1, 72 h, MTT, 72 hours incubation, read-out: GI50 PAN
# From the text: as §1, §2, §3, §4, §5, §6, §7
Structure (SMILES),IC50 HDAC7 (HDAC7),GI50 [1],GI50 [2],GI50 [3],GI50 [4],GI50 [5],GI50 [6],GI50 [7],GI50 [8],GI50 [9],GI50 [10],GI50 [11],GI50 [12],GI50 [13],GI50 [14],GI50 [15],GI50 [16],GI50 [17],GI50 [18],GI50 [19],further results
C/C=C1\NC(=O)c2ccc(F)c(n2)CNC(=O)C[C@@H](/C=C/CCSC(=O)CCCCCCC)OC(=O)[C@H](CC)NC1=O [Example 56],no activity,50 nM,37 nM,37 nM,60 nM,69 nM,93 nM,90 nM,30 nM,50 nM,81 nM,40 nM,40 nM,53 nM,42 nM,53 nM,43 nM,30 nM,93 nM,80 nM,GI50 [20]: 90 nM
C/C=C1\NC(=O)c2ccc(F)c(n2)CNC(=O)C[C@@H](/C=C/CCSC(C)=O)OC(=O)[C@H](Cc2ccc(O)cc2)NC1=O [Compound 83],no activity,50 nM,37 nM,37 nM,20 nM,29 nM,93 nM,90 nM,30 nM,50 nM,38 nM,10 nM,40 nM,53 nM,16 nM,53 nM,43 nM,30 nM,93 nM,30 nM,GI50 [20]: 90 nM
C/C=C1\NC(=O)c2cc(SC)cc(n2)CNC(=O)C[C@@H](/C=C/CCSC(=O)CCCC)OC(=O)[C@H](C(C)C)NC1=O [Compound 157],no activity,,29 nM,26 nM,,23 nM,37 nM,,,,36 nM,,,72 nM,36 nM,35 nM,23 nM,,83 nM,,GI50 ([1]; A549 cells): 20 nM; GI50 ([4]; MCF-7 cells): 20 nM; GI50 ([7]; HT1080 cells): 90 nM; GI50 ([8]; lncap cells): 50 nM; GI50 ([9]; U937 cells): 20 nM; GI50 ([11]; BGC-823 cells): 30 nM; GI50 ([12]; DU145 cells): 70 nM; GI50 ([17]; MOLT-4 cells): 20 nM; GI50 ([19]; Hela cells): 70 nM; GI50 ([20]; PANC-1 cells): 20 nM
CC(C)=C1NC(=O)c2nc(ccc2F)CNC(=O)C[C@@H](/C=C/CCS)OC(=O)[C@H](C(C)C)NC1=O [Compound 136],no activity,40 nM,36 nM,58 nM,50 nM,35 nM,41 nM,40 nM,30 nM,30 nM,9 nM,70 nM,10 nM,51 nM,31 nM,35 nM,46 nM,20 nM,22 nM,80 nM,GI50 [20]: 80 nM
CSc1ccc2nc1C(=O)NC(=C(C)C)C(=O)N[C@@H](C(C)C)C(=O)O[C@H](/C=C/CCSC(C)=O)CC(=O)NC2 [Compound 207],no activity,,33 nM,79 nM,,21 nM,55 nM,,,,38 nM,,,57 nM,19 nM,46 nM,48 nM,,27 nM,,GI50 ([1]; A549 cells): 30 nM; GI50 ([4]; MCF-7 cells): 40 nM; GI50 ([7]; HT1080 cells): 30 nM; GI50 ([8]; lncap cells): 50 nM; GI50 ([9]; U937 cells): 40 nM; GI50 ([11]; BGC-823 cells): 30 nM; GI50 ([12]; DU145 cells): 30 nM; GI50 ([17]; MOLT-4 cells): 10 nM; GI50 ([19]; Hela cells): 20 nM; GI50 ([20]; PANC-1 cells): 50 nM
C/C=C1\NC(=O)c2nc(ccc2F)CNC(=O)C[C@@H](/C=C/CCS)OC(=O)[C@H](C)NC1=O [Compound 112],no activity,60 nM,35 nM,58 nM,60 nM,31 nM,73 nM,90 nM,70 nM,60 nM,21 nM,80 nM,60 nM,41 nM,73 nM,16 nM,55 nM,90 nM,23 nM,70 nM,GI50 [20]: 80 nM
